Test results from US10466233B2, “Genetically encoded probe for quantification of lactate and methods for quantifying metabolic rates and lactate transport” (CENTRO DE ESTUDIOS CIENTIFICOS DE VALDIVIA, priority 2012, dated 2019).

Columns and labels:
[1] = target: T1, mitochondrial pyruvate transporter (PT) (Homo sapiens, UniProt O95563+Q9Y5U8); assay: Intracellular lactate in HEK293 cells after inhibition of the mitochondrial pyruvate transporter; type: cell-based; conditions: concentration that does not affect MCT function
T1 construct: endogenous in cells; host or cells: HEK293 cells (ATCC) expressing the lactate sensor
T1 sequence (Q9Y5U8 1-109): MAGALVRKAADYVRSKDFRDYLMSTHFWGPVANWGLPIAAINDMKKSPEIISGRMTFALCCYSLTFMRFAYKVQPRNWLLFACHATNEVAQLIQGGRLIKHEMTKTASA
T1 sequence (O95563 1-127): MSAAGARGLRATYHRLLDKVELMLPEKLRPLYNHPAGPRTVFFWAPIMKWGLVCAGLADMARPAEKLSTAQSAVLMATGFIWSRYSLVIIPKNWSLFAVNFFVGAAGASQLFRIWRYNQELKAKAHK
Description: (§1) Animals and Cell Cultures.
(§2) Fluorescence Measurements.
Because the reaction catalyzed by LDH is relatively fast, the cytosolic pools of lactate and pyruvate are tightly linked, and variations in pyruvate are faithfully mimicked by lactate. Accordingly, perturbation of the steady-state by addition of a blocker of the mitochondrial pyruvate transporter (PT) will cause intracellular lactate accumulation at a rate equal to the rate of pyruvate consumption by mitochondria.
To further validate methods 2 and 3, the blockers were applied sequentially and a mathematical model based on the kinetic model described in FIG. 14 was fitted to the data. The responses of intracellular lactate to transient inhibitions of the PT with 4-CIN (200 μM) and the MCTs with phloretin (50 μM) were measured in the same HEK293 cell in the presence of 25 mM glucose and no extracellular lactate. The straight lines represent the slopes of the lactate increases fitted by linear regression during the first minute (4-CIN) or during the whole exposure (phloretin). The red line represents the best fit of the kinetic model to the data, as described in Experimental Procedures, assuming full inhibition of the transporters. […] PT and lactate release rates respectively estimated from the initial slopes of lactate increase after transporter inhibition were over 90% of those estimated by modeling. […]

MCT [2] = assay: Intracellular lactate in HEK293 cells after MCT blockage; type: cell-based
Procedure: as §1, §2
The diagram in FIG. 14 illustrates how the intracellular concentration of lactate is determined by the dynamic balance between pyruvate production by glycolysis, pyruvate consumption by mitochondria and lactate exchange through MCTs. In cells that are exporting lactate, perturbation of the steady state by addition of a blocker of the MCT is expected to cause lactate accumulation. In cells that are net lactate importers, an MCT-blocker is expected to cause depletion in intracellular lactate. In both cases, the rate of change will be equal to the rate of lactate production or consumption. […] Phloretin is also known to inhibit GLUT glucose transporters, however this should not compromise the analysis of astrocytes, neurons, or the cell lines so far characterized, which maintain resting intracellular glucose at levels well above the Km of hexokinase (Bittner et al., 2010; Takanaga et al., 2008; Fehr et al., 2003). […]
To further validate methods 2 and 3, the blockers were applied sequentially and a mathematical model based on the kinetic model described in FIG. 14 was fitted to the data. The responses of intracellular lactate to transient inhibitions of the PT with 4-CIN (200 μM) and the MCTs with phloretin (50 μM) were measured in the same HEK293 cell in the presence of 25 mM glucose and no extracellular lactate. […]

[3] = system: oxidative phosphorylation; conditions: astrocytes, 5 mM
Procedure: (§5) Animals and Cell Cultures. Animals used were mixed F1 male mice (C57BL/6J×CBA/J), kept in an animal room under Specific Pathogen Free (SPF) conditions at a room temperature of 20±2° C., in a 12/12 h light/dark cycle with free access to food and water. […] Mixed cortical cultures of neuronal and glial cells (1-3 day-old neonates) were prepared as described (Loaiza et al., 2003). […] Cultures were transfected at 60% confluence using Lipofectamine 2000 (Gibco) or alternatively, exposed to 5×10^6 PFU of Ad lactate sensor of the present invention (Vector Biolab), and studied after 24-72 h.
(§6) Fluorescence Measurements. […] Cells were imaged at room temperature (22-25° C.) in a 95% air/5% CO2-gassed solution of the following composition (in mM): 112 NaCl, 1.25 CaCl2, 1.25 MgSO4, 1-2 glucose, 10 HEPES, 24 NaHCO^3, pH 7.4, with 3 mM KCl (astrocytes) or 5 mM KCl (HEK and T98G) using an upright Olympus FV1000 Confocal Microscope equipped with a 20× water immersion objective (N.A. 1.0) and a 440 nm solid-state laser. Alternatively, cells were imaged with an Olympus IX70 or with an Olympus BX51 microscope equipped with a 40× oil-immersion objective (NA 1.3) or with a 20× water-immersion objective (NA 0.95). […]

[4] = target: T2, lactate sensor Variant 7: mTFP - full length L1dR from E. coli, no linkers - Venus, SEQ ID NO 7 (Escherichia coli, UniProt P0ACL7); assay: Fluorescence ratio (FRET) dose-response of purified lactate nanosensor to lactate; type: binding; conditions: millimolar levels
T2 construct: His tag (inferred from the nickel-resin purification); made in house; host or cells: E. coli BL21 (DE3)
Procedure: Also surprising was the observation that the DNA-binding domain is important for the FRET change, and that the sensors with no linkers are more responsive (FIG. 4). […] It contains the full length L1dR from E. coli and no linkers. […] The affinity constant of L1dR for L-lactate is not known. […] This unique property of L1dR confers the lactate sensor the desirable ability of reporting across four orders of magnitude (from 1 μM to 10 mM), instead of the two orders afforded by one-site sensors.
(§3) Protein Purification. Plasmid constructs were transformed into E. coli BL21 (DE3). A single colony was inoculated in 100 ml of LB medium with […] ampicillin (without IPTG) and shaken in the dark for 2-3 days. Cells were collected by centrifugation at 5000 rpm (4° C.) for 10 min and disrupted by sonication (Hielscher Ultrasound Technology) in 5 mL of Tris-HCl buffer pH 8.0. A cell-free extract was obtained by centrifugation at 10,000 rpm (4° C.) for 1 hour and filtering of the supernatant (0.45 μm). Proteins were purified using a Nickel resin (His Bin® from Novagen) as recommended by the manufacturer. Eluted proteins were quantified using the Biuret method and stored at −20° C. in 20% glycerol.
as §2

[5] = system: monocarboxylate transporter (MCT) in astrocytes; assay: Astrocytic lactate uptake via MCT monitored with the lactate sensor; type: cell-based, mouse; conditions: 1 mM lactate
Description: as §1, §2
(§4) By controlling the exchange of lactate between cells and the interstitial space, MCTs are nodal points of tissue metabolism. MCTs catalyze the stoichiometric translocation of lactate and a proton and their activity can be measured with single-cell resolution by monitoring intracellular pH with a dye such as BCECF. However, 99.9% of protons are bound to proteins, phospholipids and other sites, and are exchanged through many transporters other than the MCT, which makes pH an imperfect proxy for lactate. To compare the performances of the lactate sensor of the present invention and BCECF, we chose astrocytes. When expressed in astrocytes, the lactate sensor of the present invention responded well to extracellular lactate, allowing real-time monitoring of lactate influx and efflux (FIG. 13). […] In contrast, exposure to extracellular lactate produced only a small change in intracellular pH as detected with BCECF (FIG. 15). […] Lactate may also be transported independently of protons through gap junctions (Rouach et al., 2008) and possibly through connexin hemichannels and pannexin channels, fluxes that are invisible to pH measurements and that may now be measured with the present invention.

MCT [6] = assay: Intracellular lactate in astrocytes after MCT blockage; type: cell-based, mice; conditions: 50 μM
Procedure: as §1, §2
The diagram in FIG. 14 illustrates how the intracellular concentration of lactate is determined by the dynamic balance between pyruvate production by glycolysis, pyruvate consumption by mitochondria and lactate exchange through MCTs. In cells that are exporting lactate, perturbation of the steady state by addition of a blocker of the MCT is expected to cause lactate accumulation. In cells that are net lactate importers, an MCT-blocker is expected to cause depletion in intracellular lactate. In both cases, the rate of change will be equal to the rate of lactate production or consumption. […] Phloretin is also known to inhibit GLUT glucose transporters, however this should not compromise the analysis of astrocytes, neurons, or the cell lines so far characterized, which maintain resting intracellular glucose at levels well above the Km of hexokinase (Bittner et al., 2010; Takanaga et al., 2008; Fehr et al., 2003). In these cells, glucose consumption remains constant for several minutes in the presence of glucose transporter blockers like phloretin or cytochalasin B (Bittner et al., 2010). Thus, during the first few minutes of phloretin application, the rate of lactate accumulation is not diminished by lack of glucose supply.

MCT [7] = assay: Initial rate of astrocytic lactate uptake measured with the lactate sensor; type: cell-based, mice; conditions: 1 mM lactate, 50 μM blocker, astrocytes
Description: as §1, §2, §4

[8] = system: oxidative phosphorylation in astrocytes; assay: Rate of lactate production on inhibition of oxidative phosphorylation, measured with the lactate sensor; conditions: Mus musculus, Astrocyte, read-out: fold increase in the rate of lactate production
Procedure: as §5, §6

[9] = Fluorescence ratio (mTFP/Venus) response of purified lactate sensor to lactate in vitro; type: binding; conditions: comparison of sensor variants (FIG. 4)
Procedure: as §3, §2

Molecule: N#CC(=Cc1ccc(O)cc1)C(=O)O [Variant 4-CIN, α-Cyano-4-hydroxycinnamate]
- effect on intracellular lactate [1]: led to an increase in intracellular lactate
- block of MCTs (MCT [2]; HEK293 cell, 200 μM, 25 mM glucose, no extracellular lactate): did not block MCTs to a significant extent

Molecule: [N-]=[N+]=[N-].[Na+] [azide, sodium azide]
- increase in the rate of lactate production [3]: 26±4 fold

Molecule: OC[C@H]1OC(O)[C@H](O)[C@@H](O)[C@@H]1O (some centres unmarked) [glucose]
- change in FRET (specificity) [4]: only lactate induced a significant change in FRET

Molecule: C[C@H](O)C(=O)O [lactate]
- change in FRET (specificity) [4]: only lactate induced a significant change in FRET
- initial rate of astrocytic uptake of lactate [5]: 1.6 ± 0.5 µM/s

Molecule: O=C(CCc1ccc(O)cc1)c1c(O)cc(O)cc1O [phloretin]
- effect on intracellular lactate (MCT [6]): caused the expected increase in intracellular lactate
- inhibition of initial rate of astrocytic lactate uptake (MCT [7]): 96±1%
- effect on intracellular lactate (MCT [2]; HEK293 cells, 50 μM): caused the expected increase in intracellular lactate

Molecule: [N-]=[N+]=[N-] [sodium azide]
- fold induction at 5000 µM [8]: 26 ± 4

Molecule: Variant 7: Most responsive FRET lactate sensor: mTFP, full length L1dR from E. coli, no linkers, Venus; SEQ ID NO 7
- change in fluorescence ratio in response to lactate [9]: most responsive variant
